What all share (type): cell-based
The subject of one test is MIAPaCa-2 (pancreatic). The test can be described thus: Cytotoxicity, MTT assay, MIAPaCa-2. Conditions: Homo sapiens, MIA PaCa-2, read-out: Cell Growth Inhibition (%). On the procedure: (§1) Compounds proposed in the present invention were evaluated for their cytotoxic effect against panel of six cancer cell line viz. HL-60 (Leukemia), PC-3 (Prostate), A-375 (Melanoma), MIAPaCa-2 (pancreatic), MCF-7 (Breast) and Caco-2 (Colon) using MTT assay. In each well of a 96-well plate, 3×10^3 cells were grown in 100 μL of medium. After 24 h, each test molecules were added to achieve a final concentration of 10 to 0.01 μmol/L, respectively. After 48 h of treatment, 20 μL of 2.5 mg/mL MTT (Organics Research, Inc.) solution in phosphate buffer saline was added to each well. After 48 h, supernatant was removed and formazan crystals were dissolved in 200 μL of DMSO. Absorbance was then measured at 570 nm using an absorbance plate reader (Bio-Rad Microplate Reader). Data are expressed as the percentage of viable cells in treated relative to non-treated conditions.
Background: Tetrazolium assays rely on reduction of a dye to a coloured formazan, in cell work by metabolically active cells.

The next test deals with HL-60 (Leukemia). The test can be described thus: Cytotoxicity, MTT assay, HL-60. Conditions: Homo sapiens; for inhibition at 10 µM: read-out: Cell Growth Inhibition (%). The protocol:
as §1

Another test concerns Caco-2 (Colon). The experiment in a line: Cytotoxicity, MTT assay, Caco-2. The following applies: Homo sapiens; for inhibition at 10 µM: read-out: Cell Growth Inhibition (%). The protocol:
as §1

In a further test the test system is A-375 (Melanoma). The experiment in a line: Cytotoxicity, MTT assay, A-375. Conditions: Homo sapiens; for inhibition at 10 µM: read-out: Cell Growth Inhibition (%). The protocol:
as §1

Another test relates to MCF-7 (Breast). The experiment in a line: Cytotoxicity, MTT assay, MCF-7. The following applies: Homo sapiens; for inhibition at 10 µM: MCF7, 10 μM, read-out: Cell Growth Inhibition (%); for IC50: MCF7. The protocol: as §1
In another test the test system is PC-3 (Prostate). The test can be described thus: Cytotoxicity, MTT assay, PC-3. Conditions: for inhibition at 10 µM: read-out: Cell Growth Inhibition (%). On the procedure: as §1

Among the data in patent US9932327B2, “Rohitukine analogs as cyclin-dependent kinase inhibitors and a process for the preparation thereof” (COUNCIL OF SCIENTIFIC AND INDUSTRIAL RESEARCH, priority 2013, dated 2018) are inhibition and IC50 values, retold here.

The inhibition is the drop in the measured response relative to a control, in per cent. Broadly, the IC50 is the point on the concentration scale where inhibition reaches its midpoint. Low readings indicate inhibition by little substance, high ones a need for much substance. On to `Cc1cc(=O)c2c(O)cc(OCc3cccs3)c(C3CCN(C)CC3O)c2o1` (stereo not drawn) [Compound 6, 7-((Thiophen-2-yl)methoxy)-5-hydroxy-8-(3-hydroxy-1-methylpiperidin-4-yl)-2-methyl-4H-chromen-4-one], for which the inhibition at 10 µM with MIAPaCa-2 (pancreatic) came out at 13.2%; with HL-60 (Leukemia), 22.2%; with Caco-2 (Colon), 33.3%; in the test with A-375 (Melanoma), 53.8%; in the test on MCF-7 (Breast) it was 19.8%; with PC-3 (Prostate) it was 22.8%. Also, half-maximal inhibition with A-375 (Melanoma) (IC50) was put at 8 µM.

On to `Cc1cc(=O)c2c(O)cc(OCc3ccccc3)c(C3CCN(C)CC3O)c2o1` (stereo not drawn) [Compound 2, 7-(benzyloxy)-5-hydroxy-8-(3-hydroxy-1-methylpiperidin-4-yl)-2-methyl-4H-chromen-4-one], for which the inhibition at 10 µM was determined as 13.8% with MIAPaCa-2 (pancreatic); 24.3% in the test on HL-60 (Leukemia); 17.6% in the test on Caco-2 (Colon); 27.8% in the test on A-375 (Melanoma); 1.44% with MCF-7 (Breast); 41% with PC-3 (Prostate).

In the case of `Cc1oc2c(C3CCN(C)CC3O)c(O)cc(O)c2c(=O)c1C(O)c1cccc(Cl)c1` (stereo not drawn) [Compound 17, 3-((3-Chlorophenyl)(hydroxy)methyl)-5,7-dihydroxy-8-(3-hydroxy-1-methylpiperidin-4-yl)-2-methyl-4H-chromen-4-one], the inhibition at 10 µM with MIAPaCa-2 (pancreatic) was found to be 1.52%; in the test on HL-60 (Leukemia), 22.2%; with Caco-2 (Colon), 4.42%; in the test with A-375 (Melanoma) it was 34.9%; with MCF-7 (Breast), 5.01%; in the test on PC-3 (Prostate) it was 31%.

With `Cc1cc(=O)c2c(O)cc(OCc3ccco3)c(C3CCN(C)CC3O)c2o1` (stereo not drawn) [Compound 5, 7-((Furan-2-yl)methoxy)-5-hydroxy-8-(3-hydroxy-1-methylpiperidin-4-yl)-2-methyl-4H-chromen-4-one], the inhibition at 10 µM in the test with MIAPaCa-2 (pancreatic) stood at 6.61%; in the test on HL-60 (Leukemia), 31.9%; in the test with Caco-2 (Colon), 16.9%; in the test with A-375 (Melanoma), 36.8%; in the test on MCF-7 (Breast), 5.73%; in the test with PC-3 (Prostate) it was 14.1%.

`Cc1oc2c(C3CCN(C)CC3O)c(O)cc(O)c2c(=O)c1C(O)c1ccc(Cl)cc1` (stereo not drawn) [Compound 14, 3-((4-Chlorophenyl)(hydroxy)methyl)-5,7-dihydroxy-8-(3-hydroxy-1-methylpiperidin-4-yl)-2-methyl-4H-chromen-4-one]: the inhibition at 10 µM turned out to be 14.8% with MIAPaCa-2 (pancreatic); 1.93% with HL-60 (Leukemia); 2.83% in the test with Caco-2 (Colon); 34.2% in the test on A-375 (Melanoma); 5.91% with MCF-7 (Breast); 41% with PC-3 (Prostate). This compound showed an IC50 in the test with HL-60 (Leukemia) of 11 µM.

Take `CN1CCC(c2c(O)cc(O)c3c(=O)cc(/C=C/c4c5ccccc5cc5ccccc45)oc23)C(O)C1` (stereo not drawn) [Compound 29, 2-((E)-2-(Anthracen-10-yl)vinyl)-5,7-dihydroxy-8-(3-hydroxy-1-methylpiperidin-4-yl)-4H-chromen-4-one]: the inhibition at 10 µM in the test on MIAPaCa-2 (pancreatic) came out at 17%; with HL-60 (Leukemia), 12.1%; in the test on Caco-2 (Colon), 0%; with A-375 (Melanoma), 4.96%; with MCF-7 (Breast), 12.7%; in the test on PC-3 (Prostate) it was 50.5%. Further, the IC50 in the test with PC-3 (Prostate) was 12 µM.

Consider `Cc1cc(=O)c2c(O)cc(OCc3ccc([N+](=O)[O-])cc3)c(C3CCN(C)CC3O)c2o1` (stereo not drawn) [Compound 8, 7-(4-Nitrobenzyloxy)-5-hydroxy-8-(3-hydroxy-1-methylpiperidin-4-yl)-2-methyl-4H-chromen-4-one], for which the inhibition at 10 µM came out at 12.4% in the test with MIAPaCa-2 (pancreatic); 14.4% with HL-60 (Leukemia); 13.6% with Caco-2 (Colon); 37.5% with A-375 (Melanoma); 39.3% with MCF-7 (Breast); 23% in the test with PC-3 (Prostate).

Turning to `Cc1oc2c(C3CCN(C)CC3O)c(O)cc(O)c2c(=O)c1C(O)c1ccc([N+](=O)[O-])cc1` (stereo not drawn) [Compound 13, 5,7-Dihydroxy-3-(hydroxy(4-nitrophenyl)methyl)-8-(3-hydroxy-1-methylpiperidin-4-yl)-2-methyl-4H-chromen-4-one], the inhibition at 10 µM was determined as 2.48% with MIAPaCa-2 (pancreatic); 0% with HL-60 (Leukemia); 5.08% with Caco-2 (Colon); 35.9% with A-375 (Melanoma); 4.03% with MCF-7 (Breast); 23.8% with PC-3 (Prostate).

Consider `Cc1cc(=O)c2c(O)cc(OCc3ccccc3Br)c(C3CCN(C)CC3O)c2o1` (stereo not drawn) [Compound 9, 7-(2-Bromobenzyloxy)-5-hydroxy-8-(3-hydroxy-1-methylpipetidin-4-yl)-2-methyl-4H-chromen-4-one], for which the inhibition at 10 µM worked out at 29.7% in the test on MIAPaCa-2 (pancreatic); 3.05% with HL-60 (Leukemia); 35.1% in the test with Caco-2 (Colon); 58.6% in the test on A-375 (Melanoma); 45.4% with MCF-7 (Breast); 31.7% in the test with PC-3 (Prostate). This compound displayed an IC50 with A-375 (Melanoma) of 12 µM.

Turning to `Cc1cc(=O)c2c(O)cc(OC(=O)c3ccco3)c(C3CCN(C)CC3O)c2o1` (stereo not drawn) [Compound 11, 5-Hydroxy-8-(3-hydroxy-1-methylpiperidin-4-yl)-2-methyl-4-oxo-4H-chromen-7-yl furan-2-carboxylate], the inhibition at 10 µM with MIAPaCa-2 (pancreatic) turned out to be 16.1%; in the test on HL-60 (Leukemia), 80.2%; with Caco-2 (Colon), 1.96%; in the test on A-375 (Melanoma), 11.2%; with MCF-7 (Breast) it was 2.86%; with PC-3 (Prostate), 15.1%.

Turning to `CN1CCC(c2c(O)cc(O)c3c(=O)cc(/C=C/c4ccccc4)oc23)C(O)C1` (stereo not drawn) [Compound 31, 2-styryl-5,7-dihydroxy-8-(3-hydroxy-1-methylpiperidin-4-yl)-4H-chromen-4-one], the IC50 was 1 µM with HL-60 (Leukemia); 3.7 µM in the test with Caco-2 (Colon); 4.4 µM with A-375 (Melanoma); 31 µM in the test with MCF-7 (Breast); 58 µM in the test on PC-3 (Prostate).

Consider `Cc1oc2c(C3CCN(C)CC3O)c(O)cc(O)c2c(=O)c1C(O)c1c(F)cccc1Cl` (stereo not drawn) [Compound 21, 3-((2-Chloro-6-fluorophenyl)(hydroxy)methyl)-5,7-dihydroxy-8-(3-hydroxy-1-methylpiperidin-4-yl)-2-methyl-4H-chromen-4-one], for which the inhibition at 10 µM was determined as 8.58% with MIAPaCa-2 (pancreatic); 25.4% in the test on HL-60 (Leukemia); 5.94% with Caco-2 (Colon); 20.8% with A-375 (Melanoma); 13.6% in the test on MCF-7 (Breast); 72.5% with PC-3 (Prostate).

On to `CN1CCC(c2c(O)cc(O)c3c(=O)cc(/C=C/c4ccc(Cl)cc4)oc23)C(O)C1` (stereo not drawn) [Compound 32, 2-(4-Chlorostyryl)-5,7-dihydroxy-8-(3-hydroxy-1-methylpiperidin-4-yl)-4H-chromen-4-one], for which the IC50 with HL-60 (Leukemia) came to 8 µM; in the test with Caco-2 (Colon) it was 5.6 µM; in the test on A-375 (Melanoma), 30 µM; in the test with MCF-7 (Breast) it was 49 µM; in the test on PC-3 (Prostate) it was 31 µM.

As for `CN1CCC(c2c(O)cc(O)c3c(=O)cc(/C=C/c4cccc(Cl)c4)oc23)C(O)C1` (stereo not drawn) [Compound 28, 2-(3-Chlorostyryl)-5,7-dihydroxy-8-(3-hydroxy-1-methylpiperidin-4-yl)-4H-chromen-4-one], the inhibition at 10 µM in the test on MIAPaCa-2 (pancreatic) amounted to 40.3%; in the test with HL-60 (Leukemia), 24.3%; in the test on Caco-2 (Colon), 27.5%; with A-375 (Melanoma), 65.9%; with MCF-7 (Breast) it was 80.4%; in the test with PC-3 (Prostate), 53.7%. For the same compound, the results for the concentration for half-maximal inhibition (IC50) with A-375 (Melanoma), in the test with MCF-7 (Breast) and in the test with PC-3 (Prostate) were 4 µM, 2 µM and 10 µM, respectively.

With `Cc1cc(=O)c2c(O)cc(OC(=O)c3ccccc3C)c(C3CCN(C)CC3O)c2o1` (stereo not drawn) [Compound 12, 5-Hydroxy-8-(3-hydroxy-1-methylpiperidin-4-yl)-2-methyl-4-oxo-4H-chromen-7-yl 2-methylbenzoate], the inhibition at 10 µM in the test with MIAPaCa-2 (pancreatic) came to 7.19%; with HL-60 (Leukemia), 12.8%; in the test on Caco-2 (Colon), 6.53%; with A-375 (Melanoma), 42%; in the test on MCF-7 (Breast), 13.4%; in the test on PC-3 (Prostate), 18.6%.

On to `Cc1cc(=O)c2c(O)cc(OCc3nc4ccccc4[nH]3)c(C3CCN(C)CC3O)c2o1` (stereo not drawn) [Compound 10, 7-((1H-Benzo[d]imidazol-2-yl)methoxy)-5-hydroxy-8-(3-hydroxy-1-methylpiperidin-4-yl)-2-methyl-4H-chromen-4-one], for which, in the test on HL-60 (Leukemia), the midpoint of inhibition, the IC50, lay at 8 µM.

`Cc1oc2c(C3CCN(C)CC3O)c(O)cc(O)c2c(=O)c1C(O)c1c(Cl)cccc1Cl` (stereo not drawn) [Compound 20, 3-((2,6-dichlorophenyl)(hydroxy)methyl)-5,7-dihydroxy-8-(3-hydroxy-1-methylpiperidin-4-yl)-2-methyl-4H-chromen-4-one] displayed an IC50 in the test on PC-3 (Prostate) of 5 µM.

Turning to `COc1ccc(COc2cc(O)c3c(=O)cc(C)oc3c2C2CCN(C)CC2O)cc1` (stereo not drawn) [Compound 3, 7-(4-Methoxybenzyloxy)-5-hydroxy-8-(3-hydroxy-1-methylpiperidin-4-yl)-2-methyl-4H-chromen-4-one], the inhibition at 10 µM in the test on MIAPaCa-2 (pancreatic) came to 15.7%; with HL-60 (Leukemia), 22.8%; with Caco-2 (Colon), 8.43%; with MCF-7 (Breast), 15.6%; in the test on PC-3 (Prostate) it was 35.2%.
